Where “and” joins values, the source holds several entries; their conditions need not be identical. Equal entries are not always repeated.
Experiments:
[1] = target: T1, FLAG-Avi-DDB1 and His-CDK12KD G731R/His-CCNKΔC (Homo sapiens, UniProt Q9NYV4, G731R); test: AlphaScreen assay, G731R; type: binding; settings: for AlphaScreen: G731R, raw signal
T1 construct: Human CDK12KD (residues 715–1052); made in house; host or cells: Sf9 or High Five (CDK12KD/CCNKΔC, co-infected with yeast CAK1); 293F with BirA (FLAG-Avi-DDB1)
Description: (§1) Biotinylated FLAG-Avi-DDB1 (3 µM) and 6xHis-CDK12KD/6xHis-CCNKΔC (WT or G731E/R mutants) (3 µM) were mixed in an assay buffer (50 mM HEPES, pH7.5, 300 mM NaCl, 0.5 mM TCEP, 0.1% NP-40, 0.1% BSA) and a serial dilution of HQ461.The protein-compound mix was transferred to 384-well plates (Corning, Corning, USA); 15 μL per well. After a 1 hr room temperature incubation, 10 µL of nickel chelate (Ni-NTA) acceptor beads (PerkinElmer, Waltham, USA, Waltham, USA, 6760619C) (1:100 diluted with assay buffer) was added per well. After incubation in the dark for 1 hr at room temperature, 10 μL of streptavidin donor beads (PerkinElmer, Waltham, USA, 6760619C) (1:100 diluted in assay buffer) was added per well. After another 1 hr incubation, AlphaScreen signal was measured on the EnVision multimode plate reader (PerkinElmer, Waltham, USA). For THZ531 competition, FLAG-Avi-DDB1, 6xHis-CDK12KD/6xHis-CCNKΔC mix was preincubated with 5 μM of THZ531 for 30 min on ice followed by the procedures described above.

[2] = test system: POLII CTD Serine 2 phosphorylation; test: Western blotting of POLII CTD Serine 2 phosphorylation; type: cell-based, Homo sapiens
Description: (§2) Standard SDS-PAGE and western blotting procedures were used with the following modifications. For preparation of total lysates, cells were rinsed with DPBS to remove residual medium and then lysed in 20 mM HEPES-NaOH, pH 8.0, 10 mM NaCl, 2 mM MgCl2, 1% SDS freshly supplemented with 0.5 units/µL of benzonase and 1x cOmplete, Mini, EDTA-free protease inhibitor cocktail (Roche, Bazel, Switzerland). Protein concentrations of the resulting lysates were quantified by the BCA method. Between 30 to 60 µg of proteins were resolved on SDS-PAGE and transferred to nitrocellulose membranes with a pore size of 0.5 μm. Membranes were blocked in 5% nonfat milk PBST (0.1% v/v Tween-20) for 30 min before blotting with antibodies. […]

[3] = target: T2, CDK13 kinase domain/CCNK-3xHA (Homo sapiens, UniProt Q14004); test: Co-expression of 3xFLAG-CDK13 kinase domain with CCNK-3xHA; type: cell-based; settings: 293T, HQ461 8 hr; not with G709E or G709R
T2 construct: ORFs encoding residues 715–1052 of CDK12 and residues 693–1030 of CDK13; expressed in transfected cells; host or cells: 293T
Description: ORFs encoding residues 715–1052 of CDK12 and residues 693–1030 of CDK13 were cloned into a pCDNA3.1-N-3xFLAG vector. For setting up cells for co-transfection, 0.6 million 293 T cells were seeded per well in 6-well tissue-culture plates and allowed to attach to plates overnight. These cells were then transfected with 50 ng of pCDNA3.1-3xFLAG-CDK12/13 kinase domain, 50 ng of pCDNA3.1-CCNK-3xHA, and 400 ng of the empty pCDNA3.1 vector. Twenty-four hours post transfection, cells were treated with HQ461 for 8 hr, and lysates were collected for western blotting with anti-FLAG and anti-HA antibodies.

[4] = target: T3, CDK12 (Homo sapiens, UniProt Q9NYV4); test: Western blotting of CDK12 protein level in A549 cells; type: cell-based; settings: A549, after 8 hr of treatment
T3 construct: Western blotting of CDK12 and CCNK from A549 cells treated with HQ461; endogenous in cells; host or cells: A549
Description: as §2

[5] = target: T4, FLAG-Avi-DDB1 and His-CDK12KD/His-CCNKΔC (WT) (Homo sapiens, UniProt Q9NYV4); test: AlphaScreen assay, WT; type: binding; settings: for AlphaScreen: raw signal
T4 construct: Human CDK12KD (residues 715–1052); made in house; host or cells: Sf9 or High Five (CDK12KD/CCNKΔC, co-infected with yeast CAK1); 293F with BirA (FLAG-Avi-DDB1)
Description: as §1

T4 sequence (Q9NYV4 715-1052 limits assumed, stated change not applied): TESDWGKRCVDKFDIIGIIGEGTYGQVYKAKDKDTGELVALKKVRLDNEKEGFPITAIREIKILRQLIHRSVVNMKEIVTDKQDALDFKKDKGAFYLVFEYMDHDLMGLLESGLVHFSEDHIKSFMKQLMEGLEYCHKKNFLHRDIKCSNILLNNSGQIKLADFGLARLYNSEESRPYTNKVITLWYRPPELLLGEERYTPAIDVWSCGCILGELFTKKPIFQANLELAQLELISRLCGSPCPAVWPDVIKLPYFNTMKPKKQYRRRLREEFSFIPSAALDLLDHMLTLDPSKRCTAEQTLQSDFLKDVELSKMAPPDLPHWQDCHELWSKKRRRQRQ
T4 sequence (O75909 11-267 partner limits assumed): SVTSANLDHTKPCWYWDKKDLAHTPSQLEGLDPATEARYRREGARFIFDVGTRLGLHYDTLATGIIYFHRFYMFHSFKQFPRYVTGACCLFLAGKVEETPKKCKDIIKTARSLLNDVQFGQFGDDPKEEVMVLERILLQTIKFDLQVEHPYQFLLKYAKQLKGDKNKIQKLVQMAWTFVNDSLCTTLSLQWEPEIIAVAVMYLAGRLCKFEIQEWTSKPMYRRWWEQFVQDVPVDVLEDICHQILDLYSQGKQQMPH
T4 sequence (Q16531 whole entry partner, the tested form may be a part): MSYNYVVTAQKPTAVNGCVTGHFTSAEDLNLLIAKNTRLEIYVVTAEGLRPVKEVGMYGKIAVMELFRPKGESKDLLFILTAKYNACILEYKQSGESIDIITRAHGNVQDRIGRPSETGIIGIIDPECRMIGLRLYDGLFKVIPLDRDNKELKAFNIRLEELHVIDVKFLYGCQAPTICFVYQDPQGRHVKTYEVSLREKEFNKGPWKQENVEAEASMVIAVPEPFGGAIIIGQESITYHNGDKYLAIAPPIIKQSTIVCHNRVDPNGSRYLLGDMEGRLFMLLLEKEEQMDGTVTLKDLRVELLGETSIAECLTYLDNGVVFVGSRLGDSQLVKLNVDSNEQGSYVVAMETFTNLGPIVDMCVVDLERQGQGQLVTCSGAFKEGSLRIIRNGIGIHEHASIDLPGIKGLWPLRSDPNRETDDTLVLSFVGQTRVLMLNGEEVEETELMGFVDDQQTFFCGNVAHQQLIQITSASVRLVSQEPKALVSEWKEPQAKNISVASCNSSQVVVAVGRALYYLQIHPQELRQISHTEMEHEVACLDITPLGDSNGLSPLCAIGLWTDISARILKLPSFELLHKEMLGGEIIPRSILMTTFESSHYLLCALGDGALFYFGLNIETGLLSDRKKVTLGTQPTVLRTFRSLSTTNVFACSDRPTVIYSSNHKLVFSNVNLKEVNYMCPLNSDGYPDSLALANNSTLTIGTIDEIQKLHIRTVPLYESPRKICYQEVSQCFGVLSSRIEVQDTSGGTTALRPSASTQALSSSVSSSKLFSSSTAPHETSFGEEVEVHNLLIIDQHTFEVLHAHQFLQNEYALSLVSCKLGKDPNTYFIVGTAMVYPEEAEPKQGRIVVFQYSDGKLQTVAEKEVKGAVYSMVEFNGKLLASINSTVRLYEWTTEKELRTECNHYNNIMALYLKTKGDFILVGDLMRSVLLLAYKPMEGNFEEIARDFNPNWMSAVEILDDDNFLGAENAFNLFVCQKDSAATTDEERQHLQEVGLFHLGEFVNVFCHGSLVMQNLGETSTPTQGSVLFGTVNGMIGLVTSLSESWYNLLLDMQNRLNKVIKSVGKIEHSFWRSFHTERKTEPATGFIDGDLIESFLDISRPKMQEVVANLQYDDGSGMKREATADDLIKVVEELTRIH
T1 sequence (Q9NYV4 715-1052 G731R limits assumed): as the sequence (Q9NYV4 715-1052 limits assumed, stated change not applied) above, with G17R counted along it
T1 sequence (O75909 11-267 partner limits assumed): as the sequence (O75909 11-267 partner limits assumed) above
T3 sequence (Q9NYV4 whole entry): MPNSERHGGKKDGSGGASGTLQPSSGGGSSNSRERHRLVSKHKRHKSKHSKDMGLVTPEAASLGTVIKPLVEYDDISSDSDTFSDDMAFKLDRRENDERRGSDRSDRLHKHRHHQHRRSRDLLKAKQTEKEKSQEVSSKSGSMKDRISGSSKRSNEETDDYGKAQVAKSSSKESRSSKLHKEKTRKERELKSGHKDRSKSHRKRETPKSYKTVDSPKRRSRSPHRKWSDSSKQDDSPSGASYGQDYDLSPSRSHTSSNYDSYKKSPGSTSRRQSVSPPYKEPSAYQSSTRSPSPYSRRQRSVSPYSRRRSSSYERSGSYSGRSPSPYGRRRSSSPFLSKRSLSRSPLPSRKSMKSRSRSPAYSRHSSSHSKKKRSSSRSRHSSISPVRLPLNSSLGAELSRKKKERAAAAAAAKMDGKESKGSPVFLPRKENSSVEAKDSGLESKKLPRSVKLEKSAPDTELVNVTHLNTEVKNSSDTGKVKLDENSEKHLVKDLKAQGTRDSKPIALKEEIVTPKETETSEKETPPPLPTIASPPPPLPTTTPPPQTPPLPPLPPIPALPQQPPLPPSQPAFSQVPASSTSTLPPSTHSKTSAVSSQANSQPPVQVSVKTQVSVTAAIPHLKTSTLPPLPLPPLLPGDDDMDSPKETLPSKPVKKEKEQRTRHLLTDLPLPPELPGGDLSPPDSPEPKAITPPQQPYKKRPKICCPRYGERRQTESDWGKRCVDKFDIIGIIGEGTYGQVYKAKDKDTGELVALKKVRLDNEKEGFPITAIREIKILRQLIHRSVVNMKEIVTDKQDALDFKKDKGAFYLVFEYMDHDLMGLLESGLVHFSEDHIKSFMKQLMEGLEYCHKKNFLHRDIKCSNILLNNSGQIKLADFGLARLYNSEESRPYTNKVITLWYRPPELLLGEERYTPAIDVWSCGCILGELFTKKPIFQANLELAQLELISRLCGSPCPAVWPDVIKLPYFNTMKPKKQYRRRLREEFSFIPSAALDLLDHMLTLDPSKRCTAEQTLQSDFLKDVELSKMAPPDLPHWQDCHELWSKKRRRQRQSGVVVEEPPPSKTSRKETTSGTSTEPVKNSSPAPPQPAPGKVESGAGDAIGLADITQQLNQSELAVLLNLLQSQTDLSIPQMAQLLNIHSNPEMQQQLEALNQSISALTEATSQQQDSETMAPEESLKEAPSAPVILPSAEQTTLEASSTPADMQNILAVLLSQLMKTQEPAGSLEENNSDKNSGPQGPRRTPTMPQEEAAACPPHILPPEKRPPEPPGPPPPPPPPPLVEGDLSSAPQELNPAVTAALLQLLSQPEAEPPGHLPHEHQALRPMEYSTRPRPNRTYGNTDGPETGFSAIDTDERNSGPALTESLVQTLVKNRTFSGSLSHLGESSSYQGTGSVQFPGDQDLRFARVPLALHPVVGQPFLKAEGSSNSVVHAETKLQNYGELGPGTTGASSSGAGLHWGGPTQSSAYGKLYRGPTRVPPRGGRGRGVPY
T3 sequence (O75909 whole entry partner): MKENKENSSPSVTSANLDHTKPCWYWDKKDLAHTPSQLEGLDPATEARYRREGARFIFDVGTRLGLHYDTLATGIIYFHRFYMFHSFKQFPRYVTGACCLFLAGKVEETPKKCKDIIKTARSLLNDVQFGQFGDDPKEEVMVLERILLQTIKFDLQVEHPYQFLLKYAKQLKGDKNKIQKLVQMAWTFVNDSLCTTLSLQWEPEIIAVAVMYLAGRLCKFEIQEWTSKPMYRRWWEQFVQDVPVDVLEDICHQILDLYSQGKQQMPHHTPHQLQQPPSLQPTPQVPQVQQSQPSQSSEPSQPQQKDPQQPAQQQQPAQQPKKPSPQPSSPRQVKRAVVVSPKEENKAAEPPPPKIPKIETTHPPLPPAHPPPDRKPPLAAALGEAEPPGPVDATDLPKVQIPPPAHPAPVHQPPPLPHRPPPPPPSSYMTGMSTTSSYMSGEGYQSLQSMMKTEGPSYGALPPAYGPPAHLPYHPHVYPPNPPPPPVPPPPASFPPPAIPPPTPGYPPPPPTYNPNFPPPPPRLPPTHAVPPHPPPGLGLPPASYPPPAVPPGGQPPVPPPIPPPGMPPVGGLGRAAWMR

Cc1cccc(Nc2nc(CC(=O)Nc3ncc(C)s3)cs2)n1 [HQ461, 2-(2-((6-methylpyridin-2-yl)amino)thiazol-4-yl)-N-(5-methylthiazol-2-yl)acetamide]
AlphaScreen ([1]; HQ461 2.22e-6 M): 1045 and 1023 and 975 | AlphaScreen ([1]; HQ461 6.67e-6 M): 1107 and 1087 and 1018 | AlphaScreen ([1]; HQ461 2e-5 M): 1057 and 1369 and 1206 | AlphaScreen ([1]; HQ461 2.47E-07 M): 1123 and 959 and 996 | AlphaScreen ([1]; HQ461 2.74E-08 M): 1124 and 1117 and 796 | AlphaScreen ([1]; HQ461 7.41E-07 M): 1008 and 1006 and 1085 | AlphaScreen ([1]; HQ461 8.23E-08 M): 1162 and 1262 and 828 | complex formation with DDB1, G731R mutant ([1]; even with 20 µM of HQ461): did not form a complex with DDB1 | inhibitory effect on POLII CTD Serine 2 phosphorylation ([2]; A549 with CDK12 G731E or G731R mutation): abolished | POLII CTD Serine 2 phosphorylation ([2]; parental A549): reduced POLII CTD Serine 2 phosphorylation | CCNK degradation with co-expressed wild-type CDK13 kinase domain [3]: sufficient for mediating HQ461-dependent degradation of CCNK | reduction of CDK12 protein level [4]: 50% | AlphaScreen ([5]; WT + 5 µM THZ531, HQ461 2.22e-6 M): 1078 and 1062 and 921 | AlphaScreen ([5]; WT + 5 µM THZ531, HQ461 6.67e-6 M): 1168 and 926 and 865 | AlphaScreen ([5]; WT + 5 µM THZ531, HQ461 2e-5 M): 1307 and 1119 and 970 | AlphaScreen ([5]; WT + 5 µM THZ531, HQ461 2.47E-07 M): 1065 and 1007 and 926 | AlphaScreen ([5]; WT + 5 µM THZ531, HQ461 2.74E-08 M): 1128 and 949 and 821 | AlphaScreen ([5]; WT + 5 µM THZ531, HQ461 7.41E-07 M): 1120 and 993 and 799 | AlphaScreen ([5]; WT + 5 µM THZ531, HQ461 8.23E-08 M): 1054 and 1033 and 906 | AlphaScreen ([5]; WT, HQ461 2.22e-6 M): 11213 and 9188 and 8788 | AlphaScreen ([5]; WT, HQ461 6.67e-6 M): 16665 and 12816 and 13014 | AlphaScreen ([5]; WT, HQ461 2e-5 M): 20710 and 15836 and 15276 | AlphaScreen ([5]; WT, HQ461 2.47E-07 M): 4781 and 3382 and 3265 | AlphaScreen ([5]; WT, HQ461 2.74E-08 M): 2625 and 1724 and 1469 | AlphaScreen ([5]; WT, HQ461 7.41E-07 M): 7377 and 5649 and 5718 | AlphaScreen ([5]; WT, HQ461 8.23E-08 M): 2916 and 2037 and 1777 | EC50 ([5]; WT, read-out: apparent EC50 of CDK12KD/CCNKΔC/DDB1 complex formation): 1900 nM

From publication PMC7462607 (eLife, 2020)
